Laboratory results reported in the supplement of paper PMC13380429.

Experiments:
[1] = system: A549-ACE2 infected with SARS-CoV-2; assay: cell count relative to DMSO; higher = less toxic; conditions: 24 h
Caco-2 [2] = assay: cell viability relative to DMSO; higher = less toxic; conditions: 72 h
Calu-3 [3] = assay: as above; conditions: 72 h
HepG2 [4] = assay: as above; conditions: 72 h
U2OS [5] = assay: as above; conditions: 72 h
Vero E6 [6] = assay: as above; conditions: 72 h
[7] = system: A549-ACE2 infected with SARS-CoV-2; assay: SARS-CoV-2 infection rate relative to DMSO; higher = more infection; conditions: 24 h
A549-ACE2 = assay: drug-induced phospholipidosis relative to tamoxifen; higher = more phospholipidosis
[8] = system: A549-ACE2 infected with SARS-CoV-2; assay: morphology score (similarity to uninfected cells); higher = more like uninfected cells; conditions: 24 h
Caco-2 [9] = assay: relative viability EC50 (midpoint between 100% and the lowest measured viability); higher = less toxic; conditions: 72 h
Calu-3 [10] = assay: as above; conditions: 72 h
HepG2 [11] = assay: as above; conditions: 72 h
Vero E6 [12] = assay: as above; conditions: 72 h
Caco-2 [13] = assay: drug sensitivity score (DSS) for viability; higher = more toxic; extreme values may be limits of the assay; conditions: 72 h
Calu-3 [14] = assay: as above; conditions: 72 h
HepG2 [15] = assay: as above; conditions: 72 h
U2OS [16] = assay: as above; conditions: 72 h
Vero E6 [17] = assay: as above; conditions: 72 h
U2OS [18] = assay: relative viability EC50 (midpoint between 100% and the lowest measured viability); higher = less toxic; conditions: 72 h

CCN1CCC(n2cc(CNc3cc(Cl)c4ncc(C#N)c(Nc5ccc(F)c(Cl)c5)c4c3)nn2)CC1 [cot-inhibitor-2]
Conditions | SARS-CoV-2 infection rate, [7] [%] | cell count, [1] [%] | cell viability, Caco-2 [2] [%] | cell viability, Calu-3 [3] [%] | cell viability, HepG2 [4] [%] | cell viability, U2OS [5] [%] | cell viability, Vero E6 [6] [%] | morphology score, [8]
1 nM | – | – | 105 | 110 | 102 | 102 | 95.7 | –
10 nM | – | – | 99.9 | 92 | 109 | 96.4 | 101 | –
100 nM | – | – | 93.3 | 111 | 91.3 | 97.4 | 101 | –
0.3 µM | 93 | 102 | – | – | – | – | – | 0.17
1000 nM | – | – | 94.6 | 96.6 | 100 | 93.2 | 99.8 | –
3 µM | 47 | 112 | – | – | – | – | – | 0.77
10 µM | 26 | 66 | – | – | – | – | – | 0.43
10000 nM | – | – | 47.4 | 87 | 43.9 | 66 | 81.6 | –

drug-induced phospholipidosis [%], A549-ACE2
Conditions | 0.3 µM | 0.833333 µM | 3.33333 µM | 6.66667 µM
24 h | -0.44 | -4.12 | -0.13 | 29.3
48 h | -2.64 | -3.78 | 2.2 | –
72 h | 1.59 | -0.868 | 0.286 | –

Conditions | drug sensitivity score | relative viability EC50 [µM]
Caco-2 [9] | – | 2.31
Caco-2 [13] | 3.7 | –
Calu-3 [10] | – | > 10
Calu-3 [14] | 0.3 | –
HepG2 [11] | – | 3.19
HepG2 [15] | 3 | –
U2OS [16] | 2.7 | –
Vero E6 [12] | – | > 10
Vero E6 [17] | 0.5 | –

CC(C)Oc1ccc(-c2nc(-c3cccc4c3CC[C@@H]4NCCO)no2)cc1C#N [ozanimod]
Conditions | SARS-CoV-2 infection rate, [7] [%] | cell count, [1] [%] | cell viability, Caco-2 [2] [%] | cell viability, Calu-3 [3] [%] | cell viability, HepG2 [4] [%] | cell viability, U2OS [5] [%] | cell viability, Vero E6 [6] [%] | morphology score, [8]
1 nM | – | – | 95.2 | 94.5 | 120 | 95.2 | 103 | –
10 nM | – | – | 75.2 | 87.2 | 101 | 105 | 96.1 | –
0.1 µM | 96 | 104 | – | – | – | – | – | 0.14
100 nM | – | – | 69.7 | 93.3 | 106 | 94.9 | 102 | –
0.3 µM | 111 | 100 | – | – | – | – | – | 0.03
1 µM | 91 | 100 | – | – | – | – | – | 0.33
1000 nM | – | – | 77.6 | 96.6 | 100 | 97.8 | 103 | –
3 µM | 44 | 114 | – | – | – | – | – | 0.77
10000 nM | – | – | 73 | 73.1 | 44.4 | 72.2 | 76.7 | –

drug-induced phospholipidosis [%], A549-ACE2
Conditions | 0.3 µM | 0.833333 µM | 3.33333 µM | 6.66667 µM | 10 µM
24 h | 6.09 | 18 | 72.5 | 83.5 | 92.3
48 h | -8.87 | 1.18 | 67.1 | 90.1 | 96.7
72 h | -6.97 | 0.974 | 62.1 | 108 | 122

Conditions | drug sensitivity score | relative viability EC50 [µM]
Caco-2 [13] | 12.1 | –
Calu-3 [14] | 1.6 | –
HepG2 [11] | – | 3.17
HepG2 [15] | 3 | –
U2OS [16] | 1.5 | –
Vero E6 [12] | – | > 10
Vero E6 [17] | 0.6 | –

Cc1nc(Nc2ccc(F)cc2)nc(N2CCc3ccccc3C2C)c1C (stereo not given) [revaprazan]
Conditions | SARS-CoV-2 infection rate, [7] [%] | cell count, [1] [%] | cell viability, Caco-2 [2] [%] | cell viability, Calu-3 [3] [%] | cell viability, HepG2 [4] [%] | cell viability, U2OS [5] [%] | cell viability, Vero E6 [6] [%] | morphology score, [8]
1 nM | – | – | 98.3 | 97.5 | 98.2 | 101 | 90.2 | –
10 nM | – | – | 96.7 | 102 | 106 | 100 | 106 | –
100 nM | – | – | 104 | 106 | 96.3 | 102 | 92.7 | –
0.3 µM | 91 | 105 | – | – | – | – | – | 0.16
1000 nM | – | – | 97.6 | 92 | 110 | 97.1 | 98.1 | –
3 µM | 61 | 110 | – | – | – | – | – | 0.59
10 µM | 33 | 115 | – | – | – | – | – | 0.78
10000 nM | – | – | 71.6 | 99.8 | 60.4 | 81.5 | 95.8 | –
30 µM | 19 | 99 | – | – | – | – | – | 0.77

drug-induced phospholipidosis [%], A549-ACE2
Conditions | 0.3 µM | 0.833333 µM | 3.33333 µM | 6.66667 µM | 10 µM | 30 µM
24 h | 0.84 | 3.77 | 8.66 | 7.71 | 18.8 | 34.5
48 h | 2.14 | 1.27 | 2.71 | 2.07 | 8.48 | 17.2
72 h | 2.77 | -0.285 | 3.45 | 3.85 | 13.8 | 30.9

Conditions | drug sensitivity score | relative viability EC50 [µM]
Caco-2 [13] | 1.6 | –
Calu-3 [10] | – | > 10
Calu-3 [14] | 0 | –
HepG2 [15] | 1.5 | –
U2OS [16] | 0.8 | –
U2OS [18] | – | > 10
Vero E6 [12] | – | > 10
Vero E6 [17] | 0 | –

O=[N+]([O-])c1ccc2c(c1)S(=O)(=O)C=C2 [stattic]
cell viability [%]
Conditions | Caco-2 [2] | Calu-3 [3] | HepG2 [4] | U2OS [5] | Vero E6 [6]
1 nM | 97.6 | 107 | 96.3 | 99.1 | 95.8
10 nM | 90.3 | 95.2 | 95.7 | 95.6 | 99
100 nM | 99 | 97.7 | 107 | 98.6 | 99.1
1000 nM | 91.2 | 117 | 102 | 94 | 95.3
10000 nM | 16.1 | 27.3 | -0.2 | 0.6 | 2.5

Conditions | drug sensitivity score | relative viability EC50 [µM]
Caco-2 [9] | – | 2.3
Caco-2 [13] | 6.1 | –
Calu-3 [10] | – | 3.99
Calu-3 [14] | 3.2 | –
HepG2 [11] | – | 3.29
HepG2 [15] | 5.4 | –
U2OS [16] | 6.4 | –
U2OS [18] | – | 2.69
Vero E6 [12] | – | 2.79
Vero E6 [17] | 6.1 | –

CC(C)(C)C(=O)OCOC(=O)[C@@H]1N2C(=O)C[C@H]2S(=O)(=O)C1(C)C [sulbactam-pivoxil]
cell viability [%]
Conditions | Caco-2 [2] | Calu-3 [3] | HepG2 [4] | U2OS [5] | Vero E6 [6]
1 nM | 99.3 | 98.5 | 98.2 | 95.7 | 99.3
10 nM | 90.6 | 97.4 | 100 | 96.6 | 104
100 nM | 93.5 | 109 | 96.2 | 94.9 | 100
1000 nM | 98.6 | 108 | 105 | 98.6 | 99.1
10000 nM | 101 | 101 | 103 | 95.3 | 99.2

Conditions | drug sensitivity score | relative viability EC50 [µM]
Caco-2 [9] | – | > 10
Caco-2 [13] | 0 | –
Calu-3 [10] | – | > 10
Calu-3 [14] | 0 | –
HepG2 [11] | – | > 10
HepG2 [15] | 0 | –
U2OS [16] | 0 | –
U2OS [18] | – | > 10
Vero E6 [12] | – | > 10
Vero E6 [17] | 0 | –
